{"source": "patent US7939272B2", "about": "“Biological markers predictive of anti-cancer response to insulin-like growth factor-1 receptor kinase inhibitors” (OSI Pharmaceuticals, Inc., priority 2007, dated 2011)", "key": {"[1]": {"target": "IGF-1R kinase (Homo sapiens, UniProt P08069)", "sequence (P08069 31-1367)": "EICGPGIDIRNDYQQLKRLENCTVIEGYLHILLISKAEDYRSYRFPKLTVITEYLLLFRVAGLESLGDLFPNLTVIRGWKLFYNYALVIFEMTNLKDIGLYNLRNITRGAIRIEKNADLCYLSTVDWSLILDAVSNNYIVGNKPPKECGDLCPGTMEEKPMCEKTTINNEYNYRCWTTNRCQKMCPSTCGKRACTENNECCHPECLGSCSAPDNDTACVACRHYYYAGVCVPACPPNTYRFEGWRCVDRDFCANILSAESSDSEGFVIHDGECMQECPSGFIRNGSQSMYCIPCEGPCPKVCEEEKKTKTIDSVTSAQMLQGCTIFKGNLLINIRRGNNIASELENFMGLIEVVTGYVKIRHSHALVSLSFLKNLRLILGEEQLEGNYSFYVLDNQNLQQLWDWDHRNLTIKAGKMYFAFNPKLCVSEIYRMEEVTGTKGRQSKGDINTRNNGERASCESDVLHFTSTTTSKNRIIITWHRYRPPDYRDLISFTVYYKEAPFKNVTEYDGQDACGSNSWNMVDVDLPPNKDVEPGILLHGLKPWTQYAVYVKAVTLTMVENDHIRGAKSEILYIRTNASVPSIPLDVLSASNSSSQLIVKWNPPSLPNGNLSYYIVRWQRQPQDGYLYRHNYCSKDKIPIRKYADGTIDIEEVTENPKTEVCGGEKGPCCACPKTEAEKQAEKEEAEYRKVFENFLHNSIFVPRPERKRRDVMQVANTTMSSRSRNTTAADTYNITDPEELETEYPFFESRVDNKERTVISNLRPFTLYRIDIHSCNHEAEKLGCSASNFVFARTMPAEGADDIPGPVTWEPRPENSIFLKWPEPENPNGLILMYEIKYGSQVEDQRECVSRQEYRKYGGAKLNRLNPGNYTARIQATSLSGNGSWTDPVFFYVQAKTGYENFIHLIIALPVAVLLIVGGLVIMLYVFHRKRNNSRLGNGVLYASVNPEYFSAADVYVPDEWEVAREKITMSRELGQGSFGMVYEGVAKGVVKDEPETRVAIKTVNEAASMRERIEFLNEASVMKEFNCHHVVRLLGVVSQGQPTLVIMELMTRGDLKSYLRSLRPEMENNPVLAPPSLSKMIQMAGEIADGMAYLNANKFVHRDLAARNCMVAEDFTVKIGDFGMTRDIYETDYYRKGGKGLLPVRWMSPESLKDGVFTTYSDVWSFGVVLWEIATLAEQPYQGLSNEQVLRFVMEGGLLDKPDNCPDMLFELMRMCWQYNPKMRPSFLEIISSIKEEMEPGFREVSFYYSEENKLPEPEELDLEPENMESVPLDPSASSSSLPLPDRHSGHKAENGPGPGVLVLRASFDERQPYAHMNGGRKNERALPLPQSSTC", "experiment": "IGF-1R kinase inhibition", "assay_type": "biochemical", "conditions": "IGF-1R kinase inhibitor potency, approx."}, "[2]": {"system": "A549 cells", "experiment": "Cell-Titer Glo cell growth inhibition", "assay_type": "cell-based, human", "conditions": "NSCLC cell line A549", "protocol": "(§1) The NSCLC lines with IGF-1R, H292, H358, H322, H441, A549, Calu6, H460, H1703 and SW1573 were cultured in the appropriate ATCC recommended supplemented media. Cell extracts were prepared by detergent lysis ((50 mM Tris-HCl, pH8, 150 mM NaCl, 1% NP-40, 0.5% NaDeoxycholate, 0.1% SDS) containing protease and phosphatase inhibitors. The soluble protein concentration was determined by micro-BSA assay (Pierce, Rockford Ill.).\n(§2) IGF-1R inhibitor Compound 66 (i.e. 3-(3-Azetidin-1-ylmethyl-cyclobutyl)-1-(2-phenyl-quinolin-7-yl)-imidazo[1,5-a]pyrazin-8-ylamine; see structure below) stock concentration was 10 mM in 100% DMSO (dimethyl sulfoxide). Serial dilutions (1:3 or 1:4) were used to establish the 50% inhibitory dose of IGF-1R inhibitor. Before dosing, inhibitor was diluted in 100% DMSO, and then added to the cells at desired final concentrations in duplicates. The final DMSO concentration was between 0.3-0.5%. Compound 66 was synthesized by the methods described in published International patent application number WO 2005/097800 A1.\n(§3) For measuring cell viability, Cell-Titer Glo assay was used, which is available as a kit from Promega. The basis of the assay is a luminescent quantitation of ATP present in a cell culture plate well. In essence, the greater the number of viable cells in the well, the greater the level of ATP present. The assay utilizes a substrate that binds ATP to produce a luminescent signal, which can be read on a luminometer. Unless otherwise noted, the manufacturer's instructions were followed exactly. Briefly, on Day 1, cells were plated in 120 μl of 10% serum-containing growth media at a density of 4000 cells/well in a white polystyrene 96 well assay plate. On day 2, cells were treated with 15 μl of 10× concentration of the IGF-1R inhibitor (e.g. Compound 66, PQIP) or DMSO alone for a final well volume of 150 μl. After 72 h incubation with the inhibitor, the cells were assayed. Results were calculated as a fraction of the DMSO controlled cells."}, "[3]": {"system": "H292 cells", "experiment": "Cell-Titer Glo cell growth inhibition", "assay_type": "cell-based, human", "conditions": "NSCLC cell line H292", "protocol": "as §1, §2, §3"}, "[4]": {"system": "H358 cells", "experiment": "Cell-Titer Glo cell growth inhibition", "assay_type": "cell-based, human", "conditions": "NSCLC cell line H358", "protocol": "as §1, §2, §3"}, "[5]": {"system": "H441 cells", "experiment": "Cell-Titer Glo cell growth inhibition", "assay_type": "cell-based, human", "conditions": "NSCLC cell line H441", "protocol": "as §1, §2, §3"}, "[6]": {"system": "SW1573 cells", "experiment": "Cell-Titer Glo cell growth inhibition", "assay_type": "cell-based, human", "protocol": "as §1, §2, §3"}, "[7]": {"system": "H460 cells", "experiment": "Cell-Titer Glo cell growth inhibition", "assay_type": "cell-based, human", "protocol": "as §1\nas §2, with “Compound 66 was synthesized by the methods described in published International patent application number WO 2005/097800 A1.” left out\n(§4) For measuring cell viability, Cell-Titer Glo assay was used, which is available as a kit from Promega. The basis of the assay is a luminescent quantitation of ATP present in a cell culture plate well. […] The assay utilizes a substrate that binds ATP to produce a luminescent signal, which can be read on a luminometer. […] Results were calculated as a fraction of the DMSO controlled cells."}, "[8]": {"system": "panel comprised of 28 tumor cell lines", "experiment": "Cell-Titer Glo cell growth inhibition, tumor cell line panel", "assay_type": "cell-based, human", "conditions": "for inhibition at 3 µM: Homo sapiens, 3 μM PQIP, 28 tumor cell lines", "protocol": "as §1\n(§5) The cell lines HCT-116, HT-29, GEO, Colo205, SW480, SW620, BxPC3, HPAC, CFPAC-1, MiaPaca-2, Panc1, A1165, MDA-MB-231, MDA-MB-435, DU4475, and MDA-MB468 were routinely cultured in media as prescribed by the ATCC containing 10% FCS. With the exception of GEO tumor cells (obtained from Roswell Park Cancer Institute (RPCI)), and A1165 (obtained from FCRF (NCI-Frederick Cancer Research Facility)) all tumor cells were obtained from the ATCC.\nIGF-1R inhibitor Compound PQIP: Synthesis of PQIP: cis-3-[3-(4-Methyl-piperazin-1-yl)-cyclobutyl]1-(2-phenyl-quinolin-7-yl)-imidazo[1,5-a]pyrazin-8-ylamine (PQIP; see structure below), is a 1,3-disubstituted-8-amino-imidazopyrazine derivative synthesized by the methods described in patent application number WO 2005/097800 A1. Compound identity and purity (>99%) was verified by ^1H and ^13C nuclear magnetic resonance, mass spectrometry (MS), and high-performance liquid chromatography using Bruker Advance 400, WatersMicromass ZQ, and Waters LC Module I Plus instruments, respectively, as well as by elemental analysis. PQIP was dissolved in DMSO at 10 mmol/L for use in biochemical or cellular assays done in vitro. […]\nas §4"}, "[9]": {"system": "DLD-1 cells", "experiment": "Cell-Titer Glo cell growth inhibition", "assay_type": "cell-based, human", "protocol": "as §3, with “IGF-1R inhibitor Compound PQIP: […] PQIP was dissolved in DMSO at 10 mmol/L for use in biochemical or cellular assays done in vitro. For in vivo studies, PQIP was dissolved in 25 mmol/L tartaric acid at an appropriate concentration to deliver the desired dose at 20 mL/kg by oral gavage. For” for “For”"}, "[10]": {"system": "RKO cells", "experiment": "Cell-Titer Glo cell growth inhibition", "assay_type": "cell-based, human", "protocol": "as §3, with “IGF-1R inhibitor Compound PQIP: […] PQIP was dissolved in DMSO at 10 mmol/L for use in biochemical or cellular assays done in vitro. For in vivo studies, PQIP was dissolved in 25 mmol/L tartaric acid at an appropriate concentration to deliver the desired dose at 20 mL/kg by oral gavage. For” for “For”"}, "[11]": {"system": "HCT-116 cells", "experiment": "Cell-Titer Glo cell growth inhibition", "assay_type": "cell-based", "conditions": "Homo sapiens, 3 μM PQIP, activating mutation in PI3K", "excerpt": "as §5\nIGF-1R inhibitor Compound PQIP: Synthesis of PQIP: cis-3-[3-(4-Methyl-piperazin-1-yl)-cyclobutyl]1-(2-phenyl-quinolin-7-yl)-imidazo[1,5-a]pyrazin-8-ylamine (PQIP; see structure below), is a 1,3-disubstituted-8-amino-imidazopyrazine derivative synthesized by the methods described in patent application number WO 2005/097800 A1. […]\nas §4"}, "[12]": {"system": "MCF-7 cells", "experiment": "Cell-Titer Glo cell growth inhibition", "assay_type": "cell-based", "conditions": "Homo sapiens, MCF7, 3 μM PQIP, activating mutation in PI3K", "protocol": "as §3, with “The” for “For measuring cell viability, Cell-Titer Glo assay was used, which is available as a kit from Promega. The”, “On day 2, cells were treated with 15 μl of 10× concentration of the IGF-1R inhibitor (e.g. Compound 66, PQIP) or DMSO alone for a final well volume of 150 μl.” left out"}, "[13]": {"system": "BxPC3 cells", "experiment": "Cell-Titer Glo cell growth inhibition", "assay_type": "cell-based, human", "conditions": "BxPC3, growth inhibition by an IGF-1R kinase inhibitor", "excerpt": "as §5\n(§6) IGF-1R inhibitor Compound PQIP: Synthesis of PQIP: cis-3-[3-(4-Methyl-piperazin-1-yl)-cyclobutyl]1-(2-phenyl-quinolin-7-yl)-imidazo[1,5-a]pyrazin-8-ylamine (PQIP; see structure below), is a 1,3-disubstituted-8-amino-imidazopyrazine derivative synthesized by the methods described in patent application number WO 2005/097800 A1. Compound identity and purity (>99%) was verified by ^1H and ^13C nuclear magnetic resonance, mass spectrometry (MS), and high-performance liquid chromatography using Bruker Advance 400, WatersMicromass ZQ, and Waters LC Module I Plus instruments, respectively, as well as by elemental analysis. PQIP was dissolved in DMSO at 10 mmol/L for use in biochemical or cellular assays done in vitro. For in vivo studies, PQIP was dissolved in 25 mmol/L tartaric acid at an appropriate concentration to deliver the desired dose at 20 mL/kg by oral gavage.\nas §3"}, "[14]": {"system": "CFPAC cells", "experiment": "Cell-Titer Glo cell growth inhibition", "assay_type": "cell-based, human", "conditions": "growth inhibition by an IGF-1R kinase inhibitor", "excerpt": "as §5, §6, §3"}, "[15]": {"system": "Colo205 cells", "experiment": "Cell-Titer Glo cell growth inhibition", "assay_type": "cell-based, human", "conditions": "Colo205, growth inhibition by an IGF-1R kinase inhibitor", "excerpt": "as §5, §6, §3"}, "[16]": {"system": "GEO cells", "experiment": "Cell-Titer Glo cell growth inhibition", "assay_type": "cell-based, human", "conditions": "growth inhibition by an IGF-1R kinase inhibitor", "excerpt": "as §5, §6, §3"}, "[17]": {"system": "HPAC cells", "experiment": "Cell-Titer Glo cell growth inhibition", "assay_type": "cell-based, human", "conditions": "growth inhibition by an IGF-1R kinase inhibitor", "excerpt": "as §5, §6, §3"}, "[18]": {"system": "HT-29 cells", "experiment": "Cell-Titer Glo cell growth inhibition", "assay_type": "cell-based, human", "conditions": "HT-29, growth inhibition by an IGF-1R kinase inhibitor", "excerpt": "as §5, §6, §3"}, "[19]": {"system": "MiaPaca-2 cells", "experiment": "Cell-Titer Glo cell growth inhibition", "assay_type": "cell-based, human", "conditions": "MiaPaca-2, growth inhibition by an IGF-1R kinase inhibitor", "excerpt": "as §5, §6, §3"}, "[20]": {"system": "Panc1 cells", "experiment": "Cell-Titer Glo cell growth inhibition", "assay_type": "cell-based, human", "conditions": "Panc1, growth inhibition by an IGF-1R kinase inhibitor", "excerpt": "as §5, §6, §3"}}, "note": "Read-outs that look alike come from different tables or passages of the source.", "data": [{"smiles": "Nc1nccn2c1c(-c1ccc3ccc(-c4ccccc4)nc3c1)nc2[C@H]1C[C@@H](CN2CCC2)C1", "note": "[Compound 66, 3-(3-Azetidin-1-ylmethyl-cyclobutyl)-1-(2-phenyl-quinolin-7-yl)-imidazo[1,5-a]pyrazin-8-ylamine]", "values": [{"measurement": "IC50", "setting": "[1]", "value": "~0.05", "unit": "µM"}, {"measurement": "sensitivity to Compound 66-mediated growth inhibition", "setting": "[2]", "value": "intermediate sensitivity"}, {"measurement": "sensitivity to Compound 66-mediated growth inhibition", "setting": "[3]", "value": "sensitive"}, {"measurement": "sensitivity to Compound 66-mediated growth inhibition", "setting": "[4]", "value": "sensitive"}, {"measurement": "sensitivity to Compound 66-mediated growth inhibition", "setting": "[5]", "value": "sensitive"}, {"measurement": "inhibition at 10 µM", "setting": "[6]; Homo sapiens, SW1573 cells, 10 μM inhibitor, read-out: growth inhibition in vitro", "value": "< 10", "unit": "%"}, {"measurement": "sensitivity to Compound 66-mediated growth inhibition", "setting": "[6]; NSCLC cell line SW1573", "value": "relatively insensitive"}, {"measurement": "sensitivity to Compound 66-mediated growth inhibition", "setting": "[7]; NSCLC cell line H460", "value": "relatively insensitive"}]}, {"smiles": "CN1CCN([C@H]2C[C@@H](c3nc(-c4ccc5ccc(-c6ccccc6)nc5c4)c4c(N)nccn43)C2)CC1", "note": "[PQIP, cis-3-[3-(4-Methyl-piperazin-1-yl)-cyclobutyl]1-(2-phenyl-quinolin-7-yl)-imidazo[1,5-a]pyrazin-8-ylamine]", "values": [{"measurement": "inhibition at 3 µM", "setting": "[7]; Homo sapiens, NCI-H460 cells, 3 μM PQIP, activating mutation in PI3K", "value": "< 20", "unit": "%"}, {"measurement": "inhibition at 3 µM", "setting": "[8]; read-out: median growth inhibition for the panel", "value": 37, "unit": "%"}, {"measurement": "inhibition at 3 µM", "setting": "[8]; 72 hours after dosing, read-out: % maximal growth inhibition, range of sensitivities over the panel", "value": "2 to 72", "unit": "%"}, {"measurement": "effects of varying concentrations on cell proliferation", "setting": "[8]; all cell lines, data not shown", "value": "dose-dependent"}, {"measurement": "sensitivity to IGF-1R inhibition", "setting": "[9]; DLD1, growth inhibition by an IGF-1R kinase inhibitor", "value": "relatively sensitive"}, {"measurement": "inhibition at 3 µM", "setting": "[9]; Homo sapiens, DLD-1 cells, 3 μM PQIP, activating mutation in PI3K", "value": "< 20", "unit": "%"}, {"measurement": "inhibition at 3 µM", "setting": "[10]; Homo sapiens, RKO cells, 3 μM PQIP, activating mutation in PI3K", "value": "< 20", "unit": "%"}, {"measurement": "sensitivity to IGF-1R inhibition", "setting": "[10]; RKO, growth inhibition by an IGF-1R kinase inhibitor", "value": "relatively insensitive"}, {"measurement": "inhibition at 3 µM", "setting": "[11]", "value": "> 70", "unit": "%"}, {"measurement": "inhibition at 3 µM", "setting": "[12]", "value": "> 70", "unit": "%"}, {"measurement": "sensitivity to IGF-1R inhibition", "setting": "[13]", "value": "relatively sensitive"}, {"measurement": "sensitivity to IGF-1R inhibition", "setting": "[14]", "value": "relatively sensitive"}, {"measurement": "sensitivity to IGF-1R inhibition", "setting": "[15]", "value": "relatively sensitive"}, {"measurement": "sensitivity to IGF-1R inhibition", "setting": "[16]", "value": "relatively sensitive"}, {"measurement": "sensitivity to IGF-1R inhibition", "setting": "[17]", "value": "relatively sensitive"}, {"measurement": "sensitivity to IGF-1R inhibition", "setting": "[18]", "value": "relatively sensitive"}, {"measurement": "sensitivity to IGF-1R inhibition", "setting": "[19]", "value": "relatively insensitive"}, {"measurement": "sensitivity to IGF-1R inhibition", "setting": "[20]", "value": "relatively insensitive"}]}]}
